Measurements published in PubChem BioAssay AID328 (DTP/NCI, 2004).
Values joined by “and” are separate entries in the source; they are usually repeats but may differ in a detail not shown here. Equal entries are not always repeated. Toxic doses and inconclusive results are not listed.

Tested on: BDF1 mice, P388 leukemia ip, median survival T/C
Test: NCI In Vivo Anticancer Drug Screen. Data for tumor model P388 Leukemia (intraperitoneal) in B6D2F1 (BDF1) mice
Conditions: endpoint: median survival time, higher = longer survival
Outline: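 Read-out is survival of treated animals expressed relative to the vehicle group, as a T/C ratio.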

[1] = dose: 100.0 mg/kg/injection, schedule: Q01DX009 (ip), vehicle: saline with Tween-80
[2] = dose: 200.0 mg/kg/injection, schedule: Q01DX009 (ip), vehicle: saline with Tween-80
[3] = dose: 400.0 mg/kg/injection, schedule: Q01DX009 (ip), vehicle: saline with Tween-80
[4] = dose: 100.0 mg/kg/injection, schedule: Q01DX009 (ip), vehicle: saline
[5] = dose: 100.0 mg/kg/injection, schedule: Q04DX003 (ip), vehicle: saline
[6] = dose: 200.0 mg/kg/injection, schedule: Q01DX009 (ip), vehicle: saline
[7] = dose: 200.0 mg/kg/injection, schedule: Q04DX003 (ip), vehicle: saline
[8] = dose: 400.0 mg/kg/injection, schedule: Q01DX009 (ip), vehicle: saline
[9] = dose: 400.0 mg/kg/injection, schedule: Q04DX003 (ip), vehicle: saline
[10] = dose: 100.0 mg/kg/injection, schedule: Q04DX003 (ip), vehicle: saline with Tween-80
[11] = dose: 200.0 mg/kg/injection, schedule: Q04DX003 (ip), vehicle: saline with Tween-80
[12] = dose: 400.0 mg/kg/injection, schedule: Q04DX003 (ip), vehicle: saline with Tween-80
[13] = dose: 100.0 mg/kg/injection, schedule: Q04DX003 (ip), vehicle: Klucel (hydroxypropylcellulose) (HPC)
[14] = dose: 200.0 mg/kg/injection, schedule: Q04DX003 (ip), vehicle: Klucel (hydroxypropylcellulose) (HPC)
[15] = dose: 50.0 mg/kg/injection, schedule: Q01DX009 (ip), vehicle: saline with Tween-80
[16] = dose: 25.0 mg/kg/injection, schedule: Q01DX009 (ip), vehicle: saline with Tween-80

## COc1ccc(C(=O)C[N+](=O)[O-])cc1
[1]
  T/C: 110 % of control
[2]
  T/C: 100 % of control
[3]
  T/C: 100 % of control

## CC(=O)OC1OC(COC(c2ccccc2)(c2ccccc2)c2ccccc2)C(OCc2ccccc2)C(OCc2ccccc2)C1OC(C)=O (stereo unspecified)
dose: 21.9 mg/kg/injection, schedule: Q01DX009 (ip), vehicle: other
  T/C: 95 % of control
dose: 43.8 mg/kg/injection, schedule: Q01DX009 (ip), vehicle: other
  T/C: 98 % of control
dose: 87.5 mg/kg/injection, schedule: Q01DX009 (ip), vehicle: other
  T/C: 93 % of control
dose: 175.0 mg/kg/injection, schedule: Q01DX009 (ip), vehicle: other
  T/C: 88 % of control
dose: 350.0 mg/kg/injection, schedule: Q01DX009 (ip), vehicle: other
  T/C: 88 % of control

## O=C(Cn1ccc(O)cc1=O)N1CCC2(CC1)SSC1(CCN(C(=O)Cn3ccc(O)cc3=O)CC1)S2
[4]
  T/C: 100 % of control
[5]
  T/C: 105 % of control
[6]
  T/C: 100 % of control
[7]
  T/C: 116 % of control
[8]
  T/C: 95 % of control
[9]
  T/C: 122 % of control

## COc1ccc(NC(=O)CC(C)=O)cc1
dose: 6.25 mg/kg/injection, schedule: Q01DX009 (ip), vehicle: saline
  T/C: 98 % of control
dose: 12.5 mg/kg/injection, schedule: Q01DX009 (ip), vehicle: saline
  T/C: 91 % of control
dose: 25.0 mg/kg/injection, schedule: Q04DX003 (ip), vehicle: saline
  T/C: 111 % of control
dose: 50.0 mg/kg/injection, schedule: Q01DX009 (ip), vehicle: saline
  T/C: 108 % of control
dose: 50.0 mg/kg/injection, schedule: Q04DX003 (ip), vehicle: saline
  T/C: 102 % of control
[4]
  T/C: 110 % of control
[5]
  T/C: 98 % of control
[6]
  T/C: 106 % of control
[7]
  T/C: 116 % of control
[8]
  T/C: 98 % of control
[9]
  T/C: 93 % of control

## CC1C(=O)CCC2(C)C1CCC1C3CCC(O)C3(C)CCC12 (stereo unspecified)
[10]
  T/C: 95 % of control
[11]
  T/C: 100 % of control
[12]
  T/C: 91 % of control

## CCN1CC1 (tested in a mixture with another compound)
dose: 0.14 mg/kg/injection, schedule: Q01DX009 (ip), vehicle: saline
  T/C: 95 % of control
dose: 0.29 mg/kg/injection, schedule: Q01DX009 (ip), vehicle: saline
  T/C: 86 % of control
dose: 0.58 mg/kg/injection, schedule: Q01DX009 (ip), vehicle: saline
  T/C: 90 % of control
dose: 1.17 mg/kg/injection, schedule: Q01DX009 (ip), vehicle: saline
  T/C: 120 % of control
dose: 2.34 mg/kg/injection, schedule: Q01DX009 (ip), vehicle: saline
  T/C: 120 % of control

## CN1C=NNc2ccc(Cl)cc2C1=O
[10]
  T/C: 103 % of control
[11]
  T/C: 114 % of control
[12]
  T/C: 109 % of control

## C=CCOCCO
[4]
  T/C: 112 % of control
[5]
  T/C: 91 % of control
[6]
  T/C: 112 % of control
[7]
  T/C: 95 % of control
[8]
  T/C: 100 % of control
[9]
  T/C: 108 % of control

## CCCCSCC(N)C(=O)OC (stereo unspecified)
[4]
  T/C: 103 % of control
[5]
  T/C: 100 % of control
[6]
  T/C: 111 % of control
[7]
  T/C: 104 % of control
[8]
  T/C: 106 % of control
[9]
  T/C: 109 % of control

## NS(=O)(=O)c1cc([N+](=O)[O-])ccc1Cl
[13]
  T/C: 100 % of control
[14]
  T/C: 108 % of control

## OC1CCCCC2CC12 (stereo unspecified)
[15]
  T/C: 101 % of control
[1]
  T/C: 101 % of control
[2]
  T/C: 102 % of control

## CC(=O)Oc1cc2c(cc1OC(C)=O)C(=O)CCC=C2
dose: 12.5 mg/kg/injection, schedule: Q01DX009 (ip), vehicle: saline with Tween-80
  T/C: 114 % of control
[16]
  T/C: 109 % of control
[15]
  T/C: 104 % of control

## c1ccc(COc2ccc(OCc3ccccc3)cc2)cc1
dose: 75.0 mg/kg/injection, schedule: Q04DX003 (ip), vehicle: saline with Tween-80
  T/C: 104 % of control
dose: 150.0 mg/kg/injection, schedule: Q04DX003 (ip), vehicle: saline with Tween-80
  T/C: 109 % of control
dose: 300.0 mg/kg/injection, schedule: Q04DX003 (ip), vehicle: saline with Tween-80
  T/C: 104 % of control

## OCC(O)C(O)C(O)C(O)C(O)c1nc2ccccc2[nH]1 (stereo unspecified)
[1]
  T/C: 100 % of control
[2]
  T/C: 91 % of control
[3]
  T/C: 93 % of control

## CC(/C=N\N=C(N)N)=N/N=C(N)N
dose: 5.0 mg/kg/injection, schedule: Q01DX010 (ip), vehicle: saline
  T/C: 90 % of control
dose: 10.0 mg/kg/injection, schedule: Q01DX010 (ip), vehicle: saline
  T/C: 90 % of control and 100 % of control
dose: 20.0 mg/kg/injection, schedule: Q01DX010 (ip), vehicle: saline
  T/C: 100 % of control
dose: 44.0 mg/kg/injection, schedule: Q01DX009 (ip), vehicle: saline
  T/C: 150 % of control
[9]
  T/C: 95 % of control

## O=C(NO)c1ccncc1
[4]
  T/C: 120 % of control
dose: 100.0 mg/kg/injection, schedule: Q01DX010 (ip), vehicle: water
  T/C: 90 % of control
dose: 132.0 mg/kg/injection, schedule: Q01DX009 (ip), vehicle: saline
  T/C: 118 % of control
dose: 200.0 mg/kg/injection, schedule: Q01DX006 (ip), vehicle: water
  T/C: 90 % of control
[6]
  T/C: 118 % of control and 120 % of control
dose: 200.0 mg/kg/injection, schedule: Q01DX010 (ip), vehicle: water
  T/C: 118 % of control
dose: 200.0 mg/kg/injection, schedule: Q#A X020 (ip), vehicle: water
  T/C: 100 % of control
dose: 222.0 mg/kg/injection, schedule: Q01DX010 (ip), vehicle: water
  T/C: 113 % of control
dose: 222.0 mg/kg/injection, schedule: Q02DX005 (ip), vehicle: water
  T/C: 113 % of control
dose: 300.0 mg/kg/injection, schedule: Q01DX009 (ip), vehicle: saline
  T/C: 118 % of control
dose: 300.0 mg/kg/injection, schedule: Q#A X020 (ip), vehicle: water
  T/C: 118 % of control
dose: 335.0 mg/kg/injection, schedule: Q02DX005 (ip), vehicle: water
  T/C: 109 % of control
dose: 400.0 mg/kg/injection, schedule: Q01DX006 (ip), vehicle: water
  T/C: 90 % of control
dose: 400.0 mg/kg/injection, schedule: Q01DX010 (ip), vehicle: water
  T/C: 150 % of control
dose: 500.0 mg/kg/injection, schedule: Q01DX001 (ip), vehicle: water
  T/C: 109 % of control
dose: 600.0 mg/kg/injection, schedule: Q01DX006 (ip), vehicle: water
  T/C: 100 % of control
dose: 600.0 mg/kg/injection, schedule: Q01DX010 (ip), vehicle: water
  T/C: 154 % of control
dose: 750.0 mg/kg/injection, schedule: Q01DX010 (ip), vehicle: water
  T/C: 154 % of control
dose: 750.0 mg/kg/injection, schedule: Q02DX005 (ip), vehicle: water
  T/C: 163 % of control
dose: 800.0 mg/kg/injection, schedule: Q01DX006 (ip), vehicle: water
  T/C: 90 % of control
dose: 1000.0 mg/kg/injection, schedule: Q01DX001 (ip), vehicle: water
  T/C: 113 % of control
dose: 1500.0 mg/kg/injection, schedule: Q01DX001 (ip), vehicle: water
  T/C: 100 % of control

## CN(C)C(=S)N(C)C
[5]
  T/C: 100 % of control
[7]
  T/C: 100 % of control
[9]
  T/C: 118 % of control

## CCOCN(COCC)c1ccc(C)cc1
[15]
  T/C: 97 % of control
[1]
  T/C: 104 % of control
[2]
  T/C: 97 % of control

## Clc1ccc(C2CC3CCCCN3O2)cc1 (stereo unspecified)
[15]
  T/C: 90 % of control
[1]
  T/C: 99 % of control
[2]
  T/C: 90 % of control

## O=C(Nc1ccc(C2=NCCCN2)cc1)Nc1cccc(C(=O)Nc2ccc(C3=NCCCN3)cc2)c1
dose: 16.5 mg/kg/injection, schedule: Q01DX009 (ip), vehicle: saline with Tween-80
  T/C: 200 % of control
[16]
  T/C: 272 % of control

## CCOc1ccc(/C=N/NS(=O)(=O)c2ccc(C)cc2)cc1
[13]
  T/C: 100 % of control
dose: 200.0 mg/kg/injection, schedule: Q01DX009 (ip), vehicle: Klucel (hydroxypropylcellulose) (HPC)
  T/C: 92 % of control
[14]
  T/C: 100 % of control
dose: 400.0 mg/kg/injection, schedule: Q04DX003 (ip), vehicle: Klucel (hydroxypropylcellulose) (HPC)
  T/C: 100 % of control

## Cc1cccc(C)c1N=CNc1c(C)cccc1C.[Cu+2]
[16]
  T/C: 103 % of control
[15]
  T/C: 86 % of control
